Results on 1 molecule are retold here after paper PMC9656482, “In Vitro and In Vivo Biological Activity of Ruthenium 1,10-Phenanthroline-5,6-dione Arene Complexes” (International Journal of Molecular Sciences, 2022).

For data set [1], the system named is HCT116 cells injected into zebrafish embryos. Description: Zebrafish embryo xenograft assay. It is filed as in vivo. Conditions: 80 μM in embryo water from 1 dpi, read at 4 dpi. How it is done:
HCT116 human colorectal cancer cell line was incubated in standard conditions (37 °C and 5% CO2) until a confluence of 80% was reached. Afterwards, the cells were concentrated and labelled with DiI and injected into the circulation (Duct of Cuvier) of 48 hpf zebrafish embryos to assay the proliferation in vivo of the cells exposed to JHOR11 (80 μM). JHOR11 was dissolved in the embryo water at 1 dpi (days post-injection) for the embryos to recover from the injection and the establishment of the cancer cells in the caudal hematopoietic tissue (CHT), and was maintained until the end of the experiment at 4 dpi. Imaging of the embryos was performed at 1 dpi and 4 dpi to quantify the fluorescence and area of the cells in the tail of the embryos, where cells invade and grow, and measure their proliferation over time to assess the inhibitory effect of JHOR11 over the cells. […]
The images were obtained with an AZ-100 Nikon fluorescence stereomicroscope at two different times ([…]) allowing in vivo monitoring of the proliferating HCT116 cells labelled within the zebrafish embryo. The analysis of the cell progression was carried out using Quantifish Software. This software analyzes each image by measuring its fluorescence above a manually set threshold that produces the integrated intensity of each image as the output. […]

The subject of data set [2] is A2780 cells. Description: Production of reactive oxygen species (H2DCF-DA). Conditions: A2780, 48 h, IC50 of JHOR11. It is filed as cell-based, human. How it is done:
Since the cytotoxicity of Ru(II) complexes is commonly accompanied by the induction of reactive oxygen species (ROS), the ROS concentration was quantified in A2780 cells exposed for 48 h to IC50 concentration of JHOR11, using DMSO 0.1% (v/v) as a vehicle control, and 3.5 µM cisplatin and 25 µM hydrogen peroxide (H2O2) as positive controls. The incubation with the dye 2′,7′-dichlorodihydrofluorescein diacetate (H2DCF-DA) that, in the presence of peroxides, emits green fluorescence after oxidation to 2′,7′-dichlorofluorescein (DCF), followed by fluorescence quantification by flow cytometry, allowed us to infer the induction of ROS.
The production of ROS was evaluated using the dye 2′,7′-dichlorodihydrofluorescein diacetate (H2DCF-DA, ThermoFisher Scientific) according to previously described procedures. […] The fluorescence was quantified in an Attune acoustic focusing cytometer and respective software (Thermo Fisher Scientific) and normalized to the fluorescence of vector control sample.

The test system of data set [3] is HCT116 colorectal carcinoma cell line. Description: MTS antiproliferative assay, HCT116. Format: cell-based, human. In general terms: Formazan colour is commonly taken as a measure of viable cells.
Experimental: The cytotoxic potential of the complexes was evaluated by assessing their viability using the 3-(4,5-dimethylthiazol-2-yl)-5-(3-carboxymethoxyphenyl)-2-(4-sulfophenyl)-2H tetrazolium, inner salt (MTS) colorimetric assay in three tumor cell lines—ovarian carcinoma, A2780, colorectal carcinoma, HCT116, and colorectal carcinoma resistant to doxorubicin, HCT116-Dox and in normal human primary dermal fibroblasts (Figure 1 and Figure S7).
Normal dermal human fibroblasts, colorectal carcinoma cell line HCT116 and ovarian carcinoma cell line A2780 were acquired from ATCC (Manassas, VA, USA). […] Fibroblasts and HCT116 cells were cultured in Dulbecco’s modified Eagle medium (DMEM, Thermo Fisher Scientific) and A2780 cell line was cultured on Roswell Park Memorial institute 1640 (RPMI-1640, Thermo Fisher Scientific). Both media were supplemented with 10% (v/v) fetal bovine serum (FBS, Thermo Fisher Scientific) and a mixture of 100 U/mL penicillin and 100 mg/mL streptomycin. The supplemented media are referred to from this point on as DMEM or RPMI for simplicity. […] All experiments underwent at 37 °C, 5% (v/v) CO2 and 99% (v/v) humidity in the dark.
Cells were seeded in a 96-well plate in a density of 7500 cells/well, and after 24 h was submitted to a concentration range between 0.1–50 µM of complexes JHOR10 and JHOR11. DMSO with a 0.1% (v/v) concentration was used as vector control and cisplatin was used as positive control in all replicates. After 48 h incubation, cellular viability was inferred with the Cell Titer 96® Aqueous One solution cell proliferation assay (Promega, Madison, WI, USA) according to the manufacturer’s instructions and procedures previously described [18, 40]. The absorbance of the produced Formazan was quantified with a Tecan microplate reader, Infinite M200 (Tecan, Mannedorf, Switzerland) and the analysis of the dose–response curves to determine the relative IC50 was performed with GraphPad Prism 8.2.1 software (GraphPad Software, La Jolla, CA, USA).
Data set [4] relates to zebrafish embryos. Description: In vivo toxicity assessment using zebrafish embryos. How it is done:
The toxicity of the JHOR10 and JHOR11 compounds was assayed in zebrafish embryos. There was a NOEC (No Observed Effect Concentration) in the case of JHOR11 of 80 µM (Table 2). The NOEC is the concentration used for the xenotransplantation experiments in order not to affect the normal development of the embryos and being able, in parallel, to assay the effect of the compound over the injected cells. Apart from that, the mortality assayed in the toxicity assays supports the concentration obtained in the NOEC, with a low mortality of the embryos when they are incubated with JHOR11 (Figure 13 and Figure 14).
Wild-type zebrafish were housed in 30 L tanks within a water recirculation system under controlled physicochemical conditions: pH 7–7.5, temperature 26 ± 2 °C, conductivity 600 µS/cm and light/dark photoperiod of 14/10 h. The adult fish were fed Gemma Micro 300 (Skretting) twice a day. Fertilized eggs were collected after natural spawning and stored in Petri dishes for 48 h until being injected, or 72 h until being exposed to different concentrations of ruthenium compounds.
At 72 h post-fertilization (hpf), the embryos were exposed to increasing concentrations of two ruthenium compounds to determine toxicological estimates: LC50 with no observed effect concentration (NOEC) and lowest observed effect concentration (LOEC). The acute toxicity assessment of the compounds was performed following the standards of the OECD Test Guideline Program.
The embryos were individually transferred to 96-well plates containing 100 µL of each desired concentration. The plates were then placed in an incubator with a temperature of 26 °C and a photoperiod of 14 h of light and 10 h of darkness. The duration of the experiment was 96 h, and observations were made every 24 h recording the four lethal effects indicated by the OECD: embryo coagulation, absence of somite formation, absence of separation of the yolk tail and absence of heartbeat. All compounds were dissolved with dimethylsulfoxide (DMSO) with a final concentration of 1%. In each test, seven concentrations were analyzed for each compound, these being: JHOR10 (10, 20, 30, 40, 50, 55, 60 µM) and JHOR11 (50, 80, 100, 140, 200, 300, 400 µM).
For the evaluation of toxicity, the mortality data were analyzed by probit analysis with the ToxRat software (ToxRat Solutions. 2003. ToxRat®. Software for the statistical analysis of biotests. Alsdorf, Germany).

In data set [5] the test system is A2780 cells. Description: Mitochondrial membrane potential (JC-1). Format: cell-based, human. The following applies: A2780, 48 h, IC50 of JHOR11, relative to vehicle control. The text has this: This dye accumulates in the mitochondria of cells, presenting red fluorescence, characteristic of the aggregated form (JC-1 aggregated), in healthy cells, and green fluorescence, characteristic of monomer form (JC-1 monomer), when the mitochondrial membrane is compromised.
The mitochondrial potential was quantified using the JC-1 mitochondrial membrane potential assay kit (Abnova, Taipé, Taiwan) according to manufacturer’s instructions and as previously described. Briefly, 2 × 10^5 A2780 cells were seeded on each well of a 6-well plate and incubated for 48 h with IC50 JHOR11, 0.1% (v/v) DMSO or 3.5 µM cisplatin. Cells with red (JC-1 aggregated) and green (JC-1 monomer) fluorescence were quantified with an Attune acoustic focusing flow cytometer and respective software (Thermo Fisher Scientific), and fluorescence ratios normalized to control samples incubated with DMSO.

[6] abbreviates: zebrafish embryos exposed from 72 hpf, 96 h.

Each structure is given as a SMILES string. Several values for one entry are separate records, joined by “and”; a condition that tells them apart may be missing. Equal values may be shown once.

One may read the IC50 as the point on the concentration scale where inhibition reaches its midpoint. Usually LC50 stands for the concentration that kills 50% of the test population. High values mean lower toxicity, low ones greater toxicity. Take `Cc1ccc(C(C)C)cc1.F[P-](F)(F)(F)(F)F.O=C1C(=O)c2cccnc2-c2ncccc21.[Cl][Ru+]` [JHOR11]: in data set [1], the “decrease of proliferation of HCT116 cells compared to control” value is 45%. In data set [2], the “increase in intracellular ROS relative to vector control” value turned out to be 1.72 ± 0.4 times. For the same molecule, the IC50 in data set [3] (48 h incubation, MTS, read-out: Relative IC50, HCT116) came out at 5.5 ± 0.3 µM. In addition, the “selective index in HCT116” value in data set [3] (relative to fibroblasts) was determined as 8.1. In addition, in data set [4] (setting [6]), the LC50 was found to be 225 µM; the “NOEC (No Observed Effect Concentration)” value was 80 µM and 80.00 µM. Besides, the “mortality of the embryos” value in data set [4] (zebrafish embryos incubated with compound) is listed as “low mortality”. For the same molecule, the “JC-1 monomer/aggregate fluorescence ratio” value in data set [5] was “decrease in the monomer/aggregate fluorescence ratio (but with no statistical significance)”.
